Assay results as given in publication PMC4955970, “Stable, synthetic analogs of diadenosine tetraphosphate inhibit rat and human P2X3 receptors and inflammatory pain” (Molecular Pain, 2016).
Entries after “also recorded” stand apart in the source; their conditions may differ. Like-named read-outs stand apart in the source and are kept apart here.

Experiments:
Assay type in all cases: cell-based
[1] = target: T1, rat P2X7 receptors (Rattus norvegicus, UniProt Q64663); assay: Whole-cell patch clamp on HEK293 cells expressing rat P2X7 receptors (ATP-induced currents); conditions: 1 µM; 10 µM ATP every 2 min
T1 construct: expressed in transfected cells; host or cells: HEK293
T1 sequence (Q64663 1-595): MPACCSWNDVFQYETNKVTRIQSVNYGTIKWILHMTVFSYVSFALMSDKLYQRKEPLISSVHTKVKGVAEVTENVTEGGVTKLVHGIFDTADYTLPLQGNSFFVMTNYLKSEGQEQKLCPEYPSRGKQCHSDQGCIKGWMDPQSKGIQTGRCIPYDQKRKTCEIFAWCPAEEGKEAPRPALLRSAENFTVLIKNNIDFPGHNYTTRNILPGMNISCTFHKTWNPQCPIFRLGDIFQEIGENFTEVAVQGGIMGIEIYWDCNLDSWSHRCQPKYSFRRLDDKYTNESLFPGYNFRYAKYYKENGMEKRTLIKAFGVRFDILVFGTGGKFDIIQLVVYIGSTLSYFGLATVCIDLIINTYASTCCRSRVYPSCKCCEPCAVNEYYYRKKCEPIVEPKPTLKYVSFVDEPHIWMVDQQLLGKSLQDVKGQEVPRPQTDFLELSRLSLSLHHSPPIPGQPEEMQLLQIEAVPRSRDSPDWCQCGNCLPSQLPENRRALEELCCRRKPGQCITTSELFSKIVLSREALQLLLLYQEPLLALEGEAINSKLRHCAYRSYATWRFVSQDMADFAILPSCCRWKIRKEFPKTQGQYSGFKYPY

[2] = target: T2, native P2X3Rs in DRG neurons (Rattus norvegicus, UniProt P49654); assay: Whole-cell recording of α,β-meATP currents in cultured dorsal root ganglion (DRG) neurons; conditions: DRG neuron, read-out: inhibition of sustained residual component in DRG neurons
T2 construct: effects of AppNHppA on native P2X3Rs in TG, DRG, and NG neurons were investigated; endogenous in cells; host or cells: cultured rat trigeminal ganglion (TG) or dorsal root ganglion (DRG) neurons
T2 sequence (P49654 1-397): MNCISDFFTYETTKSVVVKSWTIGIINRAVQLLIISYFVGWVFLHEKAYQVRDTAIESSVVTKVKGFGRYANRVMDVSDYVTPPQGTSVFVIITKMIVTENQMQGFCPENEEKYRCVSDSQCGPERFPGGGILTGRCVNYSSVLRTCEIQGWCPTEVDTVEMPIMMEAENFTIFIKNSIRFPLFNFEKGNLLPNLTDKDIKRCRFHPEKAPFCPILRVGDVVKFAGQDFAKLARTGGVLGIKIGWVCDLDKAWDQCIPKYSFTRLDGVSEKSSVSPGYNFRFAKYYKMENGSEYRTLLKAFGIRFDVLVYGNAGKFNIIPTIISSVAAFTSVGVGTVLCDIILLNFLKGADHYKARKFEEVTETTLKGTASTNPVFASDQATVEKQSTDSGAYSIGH
T2 sequence (P49653 1-472 partner): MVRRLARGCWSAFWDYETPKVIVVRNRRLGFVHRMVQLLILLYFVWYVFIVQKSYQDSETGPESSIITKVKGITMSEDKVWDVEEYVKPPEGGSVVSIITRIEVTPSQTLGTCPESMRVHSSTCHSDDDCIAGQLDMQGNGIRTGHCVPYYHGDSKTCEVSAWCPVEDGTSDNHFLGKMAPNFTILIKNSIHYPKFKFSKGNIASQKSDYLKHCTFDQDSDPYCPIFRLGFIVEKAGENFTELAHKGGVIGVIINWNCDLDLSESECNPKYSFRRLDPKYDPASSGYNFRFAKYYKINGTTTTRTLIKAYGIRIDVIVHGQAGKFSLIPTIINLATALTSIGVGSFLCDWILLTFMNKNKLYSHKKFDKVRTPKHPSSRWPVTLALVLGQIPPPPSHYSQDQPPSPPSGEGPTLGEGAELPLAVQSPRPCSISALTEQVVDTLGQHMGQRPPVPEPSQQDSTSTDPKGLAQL
Procedure: (§1) Rat trigeminal, nodose, or dorsal root ganglion (TG, NG, and DRG, respectivley) neurons in culture were prepared as described previously.[46],[47] Neurons were plated on poly-L-lysine (0.2 mg/ml)-coated Petri dishes and cultured for one to two days under an atmosphere containing 5% CO2. Cells were used within two days of plating when they lacked processes. HEK293T cells were prepared as reported previously[32],[48] and transfected with rat or human full-length P2X3 cDNA subcloned into pIRES2-EGFP (Clontech, Mountain View, CA, USA).
(§2) TG, NG, DRG, or HEK cells were recorded in the whole-cell configuration while being continuously superfused (at 2 ml/min) with control solution containing (in mM): 152 NaCl, 5 KCl, 1 MgCl2, 2 CaCl2, 10 glucose, and 10 HEPES; pH was adjusted to 7.4 with NaOH and osmolarity was adjusted to 320 mOsM with glucose. […] Responses to selective P2X3R agonist α,β-methylene-ATP (α,β-meATP; resistant to ectoATPase hydrolysis, Sigma-Aldrich) were measured using an EPC-9 amplifier operated by HEKA Patch Master software (HEKA Electronik, Germany). Cells were voltage-clamped at −70 mV. In most cells, series resistance was compensated by 80%. To determine EC50 values, dose-response curves were constructed for α,β-meATP by administering different agonist doses same cells and fitting data to a logistic equation (Origin 8.0, Microcal, Northampton, MA). […]

[3] = target: T3, native P2X3Rs in DRG neurons (Rattus norvegicus, UniProt P49654); assay: as above; conditions: DRG neuron, read-out: inhibition of peak currents in DRG neurons
T3 construct: effects of AppNHppA on native P2X3Rs in TG, DRG, and NG neurons were investigated; endogenous in cells; host or cells: cultured rat trigeminal ganglion (TG) or dorsal root ganglion (DRG) neurons
T3 sequence (P49654 1-397): T2 sequence (P49654 1-397)
Procedure: as §1, §2

Nc1ncnc2c1ncn2[C@@H]1O[C@H](COP(=O)(O)OP(=O)(O)NP(=O)(O)OP(=O)(O)OC[C@H]2O[C@@H](n3cnc4c(N)ncnc43)[C@H](O)[C@@H]2O)[C@@H](O)[C@H]1O [AppNHppA, diadenosine 5′,5′′′-P^1,P^4-(β,γ-imido)tetraphosphate]
HAD or partial agonism effect on P2X7R-mediated currents [1]: did not produce any HAD or partial agonism effects; also recorded: does not inhibit | inhibition at 1 µM [2]: 18 ± 6% | inhibition at 1 µM [3]: 79.2 ± 5.6%
